≈ marks a conversion by molar mass, not a printed value.
Tests used:
[1] = system: Candida albicans ATCC MYA-2876 (azole sensitive); test: Fungal MIC and MFC, microbroth dilution assay (M27-A3); type: cell-based; conditions: C. albicans MYA2876 (azole sensitive)
[2] = system: HeLa cells; test: Cell viability assay (MTT), cytotoxicity test; type: cell-based, human; conditions: for Viable Cells Percentage Compared to Control: MTT
Experimental: HeLa cells were grown in commercial DMEM 1× (Gibco) with 10% fetal bovine serum (FBS, Gibco), 100 U/mL penicillin, and 100 μg/mL streptomycin at 37° C. and 5% CO2. The cells were allowed to adhere for 24 h before drug treatment.
The cells were seeded in 96-well microtiter plates (10,000/200 μL). After 24 h of incubation in the media, cells were treated with various concentrations of K608, K4608 and K408 (0.0, 1.0, 10.0, 100.0, 1000 μg/mL and Trition 1×) for 48 h. 20 μL of MTT stock solution (5 mg/mL) was added to each well and incubated for 4 h at 37° C. Upon completion of incubation, the media was carefully removed and washed twice with […] of pbs buffer. Then, 200 μL of DMSO was added to each well; agitated on orbital shaker for 15 min., and the absorbance at 570 nm with 670 nm filter was determined with a microplate reader (Synergy H4). The results are expressed as viability compared with that of control. The experiment was carried out in triplicate in three independent experiments.

[3] = system: Fusarium graminearum B4-5A; test: microbe, parasite or virus in culture; type: cell-based; conditions: Fusarium graminearum, B45A, 48 h
[4] = system: Staphylococcus aureus ATCC25923; test: Bacterial growth inhibition (MIC) test, microtiter plate, CLSI protocol; type: cell-based; conditions: Staphylococcus aureus, ATCC25923; S. aureus 25923; 37° C., 24 hours; read-out: MIC
[5] = system: Escherichia coli ATCC 25922; test: as above; type: cell-based; conditions: Escherichia coli, ATCC25922; E. coli 25922; Luria-Bertani medium, 37° C., 24 hours; read-out: MIC
[6] = system: Candida albicans ATCC64124 (azole-resistant); test: microbe, parasite or virus in culture; type: cell-based
[7] = system: azole-resistant Candida albicans ATCC 64124; test: Antifungal synergism by checkerboard analysis, K-compound and azole combinations; type: cell-based; conditions: Candida albicans, ATCC64124, K4608 checkerboard table; compound alone

CCCCCCCCOC[C@H]1OC(O[C@@H]2C(N)CC(N)C(O[C@H]3OC(CN)[C@@H](O)[C@H](O)C3O)[C@@H]2O)[C@H](O)[C@H](N)C1OCCCCCCCC (some centres unmarked) [Compound K4608]
MIC ([1]; RPMI 1640, 35° C., 48 hours): 1.2 to 2.4 µg/mL (≈ 1.69 to 3.39 µM)
MFC ([1]; subculture on Sabouraud dextrose agar after MIC test): 2.4 µg/mL (≈ 3.39 µM)
toxicity to human cervical cancer cell line HeLa ([2]; 1.0 to 1000 μg/mL, 48 h): not toxic
Viable Cells Percentage Compared to Control ([2]; HeLa, 1 μg/mL, 48 h): 124.28%
Viable Cells Percentage Compared to Control ([2]; HeLa, 10 μg/mL, 48 h): 149.52%
Viable Cells Percentage Compared to Control ([2]; HeLa, 100 μg/mL, 48 h): 129.86%
Viable Cells Percentage Compared to Control ([2]; HeLa, 1000 μg/mL, 48 h): 122.93%
effect on growth of cells (number of viable cells) ([2]; HeLa, wells treated with compound): promoted growth of cells
MIC [3]: 15.6 µg/mL (≈ 22 µM)
MIC [4]: > 250 µg/mL
MIC [5]: > 250 µg/mL
MFC ([6]; ATCC64124): 9.8 µg/mL (≈ 13.8 µM)
MIC ([6]; ATCC64124, 48 h): 4.9 to 9.8 µg/mL (≈ 6.91 to 13.8 µM)
MIC [7]: 31.2 µg/mL

Reference: patent publication US20160060285A1, “Aminoglycosides, Methods of Synthesis, and Associated Applications” (UTAH STATE UNIVERSITY, priority 2010, published 2016)
